Data published in patent publication US20120064090A1, “THERAPEUTIC AGENT FOR CANCER HAVING REDUCED SENSITIVITY TO MOLECULAR TARGET DRUG AND PHARMACEUTICAL COMPOSITION FOR ENHANCING SENSITIVITY TO MOLECULAR TARGET DRUG” (KRINGLE PHARMA INC., priority 2009, published 2012).

Key:
H1975 [1] = assay: Effects of gefitinib or CL-387,785 on H1975, MTT growth rate; assay type: cell-based, human; conditions: 0.01 to 10 μM, 72 hours, FIG. 8
Method: (§1) After 80% confluent H1975 was stripped and collected, the cells were seeded at 2×10^3 cells/well on 96-well plates and cultured for 24 hours. After that, gefitinib or CL-387,785 was added to each well so that the final concentration might be set to the seven levels of 0.01 to 10 μM, and then culture was continued for 72 hours. After that, 50 μl, of an MTT solution (2 mg/mL, manufactured by Sigma) was added and incubation was performed at 37° C. for 2 hours. The culture media were removed, and dark blue crystals were dissolved by adding 100 μL of DMSO. The absorbance was measured with a microplate reader MTP-120 (Corona Electric Co., Ltd.) at the detection and reference wavelengths of 550 nm and 630 nm, respectively. The growth rate was shown as a relative value based on an untreated control. Each experiment was performed in triplicate and repeated thrice independently.

PC-9 [2] = assay: Effects of SU11274 on PC-9 with HGF-induced gefitinib-resistance; assay type: cell-based, human; conditions: HGF 20 ng/mL, gefitinib 0.3 μM, antibody 1 μg/mL, NK4 0.3 μM, SU11274 0.3 μM, 72 hours, FIG. 11
Method: as §1, with “PC-9” for “After 80% confluent H1975”, “was” for “was stripped and collected, the cells were”, “After that, gefitinib or CL-387,785 was added to each well so that the final concentration might be set to the seven levels of 0.01 to 10 μM, and then culture was continued for 72 hours.” left out, “μL” for “μl,”

H1975 [3] = assay: Effects of SU11274 on H1975 with HGF-induced CL-387,785-resistance; assay type: cell-based, human; conditions: CL-387,785 0.3 μM, HGF 50 ng/mL, antibody 2 μg/mL, NK4 0.3 μM, 72 hours, FIG. 12
Method: H1975 was seeded at 2×10^3 cells/well on 96-well plates and cultured for 24 hours. […] The degree of cell growth was measured by the MTT method and the growth rate was calculated in the same manner as in the above (a).

PC-9/HGF = assay: PC-9 transfected with HGF expression vector, MTT growth rate; assay type: cell-based, human; conditions: gefitinib 0.3 μM, 72 hours, FIG. 4
Method: (§2) An HGF expression vector was prepared according to the description in “Ueki T, Kaneda Y, Tsutsui H, et al. Hepatocyte growth factor gene therapy of liver cirrhosis in rats. Nature Medicine 5, 226-230 (1 Feb. 1999)”. On the day before transfection, PC-9 prepared in a culture medium without any antibiotics was seeded at 2×10^4 cells/400 μL on 24-well plates and then cultured for 24 hours. The HGF expression vector was transfected into the cells by use of Lipofectamine 2000 (1 μL) (PC-9/HGF). As a control, a vector without the HGF gene was similarly transfected into the cells (PC-9/mock). After 24-hour culture, the cells were washed with PBS. Then, 0.3 μM of gefitinib (final concentration), 2 μg/mL of the anti-human HGF neutralizing antibody (final concentration) and/or 2 μg/mL of the control IgG (final concentration) were added, or not added, and then culture was continued for 72 hours. After 72-hour culture, the degree of cell growth was measured by the MTT method and the growth rate was calculated in the same manner as in Example 1.

[4] = test system: tumor formed of PC-9 and MRC-5 cells; assay: Xenograft tumor (PC-9 + MRC-5) transplanted into SCID mice; assay type: in vivo; conditions: PC-9 + MRC-5 s.c., days 4 to 16, gefitinib 25 mg/kg/day oral, antibody 5 mg/kg/day i.p., NK4 9 mg/kg/day i.p., FIG. 6
Method: SCID mice (female, 5 weeks old) were purchased from CLEA Japan.
100 μL of a cell suspension containing PC-9 (5×10^6 cells) and MRC-5 (5×10^6 cells) was subcutaneously inoculated from the back skin of each SCID mouse. Four days later, mice bearing a tumor exceeding 4 mm in diameter were randomly divided into 6 groups (5 mice per group) as shown in Table 1.
In gefitinib-treated groups (groups 4, 5 and 6 in Table 1), gefitinib (25 mg/kg/day) was orally administered once daily in the morning for 13 days from 4 days to 16 days after cell inoculation. In gefitinib-non-treated groups (groups 1, 2 and 3 in Table 1), a water containing 1% Tween80 was orally administered once daily in a similar manner to the above. In anti-HGF neutralizing antibody-treated groups (groups 2 and 5 in Table 1), the anti-HGF neutralizing antibody (5 mg/kg/day) was intraperitoneally administered once daily immediately after gefitinib administration for 13 days from 4 days to 16 days after cell inoculation. In NK4-treated groups (groups 3 and 6 in Table 1), NK4 (9 mg/kg/day) was intraperitoneally administered in divided portions twice a day in the morning immediately after gefitinib administration and in the evening for 13 days from 4 days to 16 days after cell inoculation.
The width and length of tumor were measured every other day, and the tumor area (width×length) was calculated. […]

PC-9/mock = assay: PC-9 transfected with vector without the HGF gene, MTT growth rate; assay type: cell-based, human; conditions: gefitinib 0.3 μM, 72 hours, FIG. 4
Method: as §2

HCC827 [5] = assay: Induction of gefitinib resistance by various growth factors; assay type: cell-based, human; conditions: growth factor 20 ng/mL, gefitinib 0.3 or 1 μM, 72 hours, FIG. 3(b)
Method: (§3) In the same manner as in the above (a), PC-9 or HCC827 was seeded at 2×10^3 cells/well on 96-well plates, and after 24-hour culture, gefitinib was added to the wells so that the final concentration might be 0.3 or 1 μM. HGF, EGF, TGF-α or IGF-I was further added to give a final concentration of 20 ng/mL and then culture was continued for 72 hours. Wells without gefitinib and wells into which a culture medium was added instead of the growth factors were prepared for this experiment. After 72-hour culture, the degree of cell growth was measured by the MTT method and the growth rate was calculated in the same manner as in the above (a).

PC-9 [6] = assay: as above; assay type: cell-based, human; conditions: growth factor 20 ng/mL, gefitinib 0.3 or 1 μM, 72 hours, FIG. 3(a)
Method: as §3

H1975 [7] = assay: Induction of CL-387,785 resistance by HGF; assay type: cell-based, human; conditions: HGF 50 ng/mL, CL-387,785 0.03 to 3 μM, 72 hours, FIG. 9
Method: In the same manner as in the above (a), H1975 was seeded at 2×10^3 cells/well on 96-well plates. After 24-hour culture, CL-387,785 was added to the wells so that the final concentration might be set to the five levels of 0.03 to 3 μM. An HGF solution was further added to give a final concentration of 50 ng/mL, or was not added, and then culture was continued for 72 hours. The degree of cell growth was measured by the MTT method and the growth rate was calculated in the same manner as in the above (a).

PC-9 [8] = assay: Single culture of PC-9 with or without HGF, MTT growth rate; assay type: cell-based, human; conditions: PC-9 single culture; HGF 50 ng/mL; gefitinib 0.3 μM; 72 hours; FIG. 5
Method: In the case of single culture of PC-9, PC-9 was seeded in each well of 24-well plates at 8×10^3 cells/700 μL and then cultured for 24 hours. After that, 50 ng/mL of HGF (final concentration) was added or not added, 0.3 μM of gefitinib (final concentration) was added or not added, 2 μg/mL of the control IgG (final concentration) or 2 μg/mL of the anti-human HGF neutralizing antibody (final concentration) was added or not added, and then culture was continued for 72 hours. After 72-hour culture, the degree of cell growth was measured by the MTT method and the growth rate was calculated in the same manner as in Example 1.

HCC827 [9] = assay: Induction of gefitinib resistance by HGF, MTT growth rate; assay type: cell-based, human; conditions: HGF 2 to 50 ng/mL, gefitinib 0.01 to 1 μM, 72-hour culture, FIG. 1(b)
Method: (§4) PC-9 or HCC827 was seeded at 2×10^3 cells/well on 96-well plates and cultured for 24 hours. After that, gefitinib and HGF were added to the wells in combinations thereof at different concentrations. Specifically, gefitinib was added to each well so that the final concentration might be set to the five levels of 0.01 to 1 μM. Wells without gefitinib were also prepared for this experiment. An HGF solution was added to the wells so that the final concentration might be set to the five levels of 2 to 50 ng/mL. Wells without HGF were also prepared for this experiment. After 72-hour culture, 50 μL of an MTT solution (2 mg/mL, manufactured by Sigma) was added and incubation was performed at 37° C. for 2 hours. The culture media were removed, and dark blue crystals were dissolved by adding 100 μL of DMSO. The absorbance was measured with a microplate reader MTP-120 (Corona Electric Co., Ltd.) at the detection and reference wavelengths of 550 nm and 630 nm, respectively. The growth rate was shown as a relative value based on an untreated control. Each experiment was performed in triplicate and repeated thrice independently.

PC-9 [10] = assay: as above; assay type: cell-based, human; conditions: HGF 2 to 50 ng/mL, gefitinib 0.01 to 1 μM, 72-hour culture, FIG. 1(a)
Method: as §4

## CC#CC(=O)Nc1ccc2ncnc(Nc3cccc(Br)c3)c2c1 [CL-387,785]
H1975 [1]
  sensitivity of H1975 to the drug (growth rate): sensitive

## Cc1[nH]c(/C=C2\C(=O)Nc3ccc(S(=O)(=O)N(C)c4cccc(Cl)c4)cc32)c(C)c1C(=O)N1CCN(C)CC1 [SU11274, reference compound]
PC-9 [2]
  inhibition of HGF-induced hyposensitivity of PC-9 to gefitinib: significantly inhibited
H1975 [3]
  inhibition of HGF-induced hyposensitivity of H1975 to CL-387,785: significantly inhibited

## COc1cc2ncnc(Nc3ccc(F)c(Cl)c3)c2cc1OCCCN1CCOCC1 [gefitinib]
PC-9/HGF
  sensitivity of cells to gefitinib (growth rate): less sensitive
H1975 [1]
  sensitivity of H1975 to the drug (growth rate): resistant
[4]
  tumor volume / tumor growth over time: increase in tumor volume was inhibited, but no significant regression was observed
PC-9/mock
  sensitivity of cells to gefitinib (growth rate): sensitive

## EGF (NSDSECPLSHDGYCLHDGVCMYIEALDKYACNCVVGYIGERCQYRDLKWWELR; Epidermal growth factor; UniProt P01133 971-1023, looked up) [growth factor purchased from Invitrogen]
HCC827 [5]
  induction of gefitinib resistance by growth factor (growth rate): slightly induced gefitinib resistance
PC-9 [6]
  induction of gefitinib resistance by growth factor (growth rate): slightly induced gefitinib resistance

## HGF
H1975 [7]
  effect of HGF on sensitivity of H1975 to CL-387,785: reduced the sensitivity of H1975 to CL-387,785
PC-9 [8]
  induction of gefitinib resistance (hyposensitivity) of PC-9: induced gefitinib resistance
HCC827 [5]
  induction of gefitinib resistance by growth factor (growth rate): remarkable capability of inducing gefitinib resistance
PC-9 [6]
  induction of gefitinib resistance by growth factor (growth rate): remarkable capability of inducing gefitinib resistance
HCC827 [9]
  induction of gefitinib resistance (growth rate): induced gefitinib resistance of PC-9 and HCC827 in a concentration-dependent manner
PC-9 [10]
  induction of gefitinib resistance (growth rate): induced gefitinib resistance of PC-9 and HCC827 in a concentration-dependent manner

## IGF-I
HCC827 [5]
  induction of gefitinib resistance by growth factor (growth rate): slightly induced gefitinib resistance
PC-9 [6]
  induction of gefitinib resistance by growth factor (growth rate): slightly induced gefitinib resistance

## TGF-α
HCC827 [5]
  induction of gefitinib resistance by growth factor (growth rate): slightly induced gefitinib resistance
PC-9 [6]
  induction of gefitinib resistance by growth factor (growth rate): slightly induced gefitinib resistance
